The results in this text go back to US20010047027A1, “Prostaglandin D2 receptor antagonists” (priority 2000, published 2001).

In the experiment the target is T1, prostanoid DP receptor (prostaglandin D receptor) (Homo sapiens, UniProt Q13258).
T1 construct: expressed in transfected cells; host or cells: HEK293(EBNA) cells; membranes, 160,000 x g fraction
T1 sequence (Q13258 1-359): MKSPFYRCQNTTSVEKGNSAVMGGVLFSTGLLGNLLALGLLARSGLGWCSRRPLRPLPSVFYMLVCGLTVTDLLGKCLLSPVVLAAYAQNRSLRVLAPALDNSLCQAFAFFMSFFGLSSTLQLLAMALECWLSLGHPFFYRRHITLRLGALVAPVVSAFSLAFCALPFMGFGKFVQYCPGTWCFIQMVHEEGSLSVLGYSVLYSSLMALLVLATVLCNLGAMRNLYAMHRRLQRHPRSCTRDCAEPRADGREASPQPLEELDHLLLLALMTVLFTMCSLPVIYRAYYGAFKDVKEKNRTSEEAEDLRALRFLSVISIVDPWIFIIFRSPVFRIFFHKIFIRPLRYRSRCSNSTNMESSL
Nature of the experiment: Radioligand binding assay using membranes from cells that express recombinant prostanoid DP receptor. To be noted: for Ki: membranes of HEK293(EBNA) cells expressing DP, 0.7 nM [3H]PGD2, 60 min at room temperature, n = 5, read-out: Affinity (Ki) for the prostaglandin D receptor; for affinity for the prostaglandin D2 receptor, in words: comparison of the 1R isomers with the other two diastereomers. Here is the method:
Radioligand binding assays using membranes from cells that express recombinant prostanoid DP receptor (DP).
Radioligand binding assays are conducted essentially as previously described (Abramovitz et al., Biochem. Biophys. Acta 1483-2, 285-293, 2000). HEK293(EBNA) cells expressing DP are grown in supplemented DMEM complete medium at 37° C. in a humidified atmosphere of 6% CO2 in air, and then harvested. Cells are disrupted by nitrogen cavitation at 800 psi for 30 min. on ice in the presence of protease inhibitors (2 mM phenylmethylsulfonylfluoride, 10 μM E-64, 100 μM leupeptin and 0.05 mg/mL pepstatin). Membranes are prepared by differential centrifugation (1000×g for 10 min, then 160,000×g for 30 min, all at 4° C.). The 160,000×g pellets are resuspended in 10 mM HEPES/KOH (pH 7.4) containing 1 mM EDTA at approximately 5-10 mg/mL protein by Dounce homogenization (Dounce A; 10 strokes), frozen in liquid nitrogen and stored at −80° C. DP receptor binding assays are performed in a final incubation volume of 0.2 mL in 10 mM HEPES/KOH (pH 7.4), containing 1 mM EDTA, 10 mM MnCl2, 0.7 nM [^3H]PGD2 (115-200 Ci/mmol). The reaction was initiated by addition of 30-60 μg membrane protein from the 160,000×g fraction. Test compounds are added in dimethylsulfoxide (Me2SO) at 1% (v/v) in all incubations. Non-specific binding was determined in the presence of 1-10 μM of non-radioactive PGD2. Incubations are conducted for 60 min. at room temperature. Incubations are terminated by rapid filtration at 4° C. Radioactivity bound to the individual filters is determined by scintillation counting. Maximum specific binding is defined as the total binding minus the non-specific binding. Specific binding is determined at each concentration of test compound and is expressed as a percentage of the maximum specific binding. Sigmoidal equilibrium competition curves were constructed by expressing percentage maximum specific binding as a function of ligand concentration and analyzed by a validated custom designed software employing a simplex driven non-linear least-squares curve fitting routine based on a four parameter equation to determine the inflection point concentration (InPt). The corresponding Kivalues were derived from the equation Ki=InPt/1+([radioligand]/KD).

Each structure is given as a SMILES string.

`C[S+]([O-])c1cccc2c3c(n(Cc4ccc(Cl)cc4)c12)C(CC(=O)O)CCC3` (single isomer, unassigned) [Enantiomer of Ia, reference compound]: the Ki was 0.119 ± 0.039 µM.
Turning to `C[S@@+]([O-])c1cccc2c3c(n(Cc4ccc(Cl)cc4)c12)[C@@H](CC(=O)O)CCC3` [Compound Ib, 2-[(1R)-9-(4-chlorobenzyl)-8-((R)-methylsulfinyl)-2,3,4,9-tetrahydro-1H-carbazol-1-yl]acetic acid], the “affinity for the prostaglandin D2 receptor, in words” value is “much higher affinity” and the Ki was found to be 0.0021 ± 0.0001 µM.
Taken in the same sequence, the figures for `C[S@+]([O-])c1cccc2c3c(n(Cc4ccc(Cl)cc4)c12)[C@@H](CC(=O)O)CCC3` [Compound Ia, 2-[(1R)-9-(4-chlorobenzyl)-8-((S)-methylsulfinyl)-2,3,4,9-tetrahydro-1H-carbazol-1-yl]acetic acid] were “much higher affinity” and 0.0017 ± 0.0003 µM.
As to `C[S+]([O-])c1cccc2c3c(n(Cc4ccc(Cl)cc4)c12)C(CC(=O)O)CCC3` (single isomer, unassigned) [Enantiomer of Ib, reference compound], the Ki worked out at 0.072 ± 0.004 µM.
